We go through 1 compound from patent publication US6627246B2, “Process for coating stents and other medical devices using super-critical carbon dioxide” (Ortho-McNeil Pharmaceutical, Inc., priority 2000, dated 2003).

Each structure is given as a SMILES string.

A short description of data set [1]: In-vitro release study of RWJ-53308 from PLGA coated stent. Conditions: from PLGA coated stent in 2 mL water. In kind it is physicochemical. On the procedure:
A coated stent obtained in step b was placed in a tube with 2 mL of water. A 1 mL. aliquot was taken at the 1 hr and at the 17.5 hour time point. This 1 mL. aliquot was replaced with fresh water at each sampling. The sampled aliquot was analyzed by reading UV absorbance at 261 nm. The drug concentration was calculated by comparing the absorbance of a standard solution containing 147 μg/mL aqueous solution of RWJ-53308.
It was observed that approx. 66 ug of RWJ-53308 was released at 1 hour and a cumulative amount of approx. 134 ug was released at 17.5 hours as shown in FIG. 1.

The nature of data set [2]: Determination of RWJ-53308 on the PLGA coated stent (24 h water maceration, UV 261 nm). In kind it is physicochemical. To be noted: macerated 24 hours in 2 mL water, UV absorbance 261 nm. On the procedure: A coated stent obtained in step b above was placed in a tube with 2 mL. water. The coated stent was allowed to macerate for 24 hours. The aqueous supernatant was drained, filtered and UV absorbance was read at 261 nm. The amount of RWJ-53308 on the stent was calculated by comparing the absorbance value of a standard solution containing 147 μg/mL solution of RWJ-53308. Thus the supernatant obtained by extracting the drug from the PLGA coated stent contained 105 μg of RWJ-53308.

In the case of `O=C(O)C[C@H](NC(=O)[C@@H]1CCCN(C(=O)CCC2CCNCC2)C1)c1cccnc1` [RWJ-53308, 3-Pyridinepropanoic acid, b-[[[(3R)-1-[1-oxo-3-(4-piperidinyl)propyl]-3-piperidinyl]carbonyl]amino]-, (bS)-(9CI)], the “amount of RWJ-53308 released” value in data set [1] (at 1 hour) was “approx. 66 ug”. Moreover, the “cumulative amount of RWJ-53308 released” value in data set [1] (at 17.5 hours) is “approx. 134 ug”. In addition, the “amount of RWJ-53308 in supernatant extracted from PLGA coated stent” value in data set [2] came out at 105 µg.
